O=C(/C=C/c1ccc(O)c(O)c1)O[C@H](Cc1ccc(O)c(O)c1)C(=O)O
solubility (mole fraction)
Conditions	293.15 K	298.15 K	303.15 K	308.15 K	313.15 K	318.15 K
in ethanol	0.268	0.295	0.328	0.366	0.408	0.455
in methanol	0.28	0.314	0.358	0.399	0.443	0.494
in water	0.0135	0.0151	0.0165	0.0185	0.0209	0.0248
